We go through two compounds from US20070275977A1, “N-OXIDES OF PYRIDYLMETHYL -PIPERAZINE AND -PIPERIDINE DERIVATIVES” (priority 2006, published 2007).

As a reminder, the melting point is the temperature, or range, at which the solid turns liquid.

One data set deals with Muscarine-M1 (Homo sapiens, UniProt P11229). In words: In vitro receptor affinity, Muscarine-M1. The settings on record: radioligand [3H]-pirenzepine, read-out: K1 (in vitro receptor affinity). The format is binding. As to the method:
(§1) ln vitro affinity for neurotransmitter receptors: The binding data collected below were either obtained by CE REP (128, rue Danton, 92500 Rueil-Malmaison, France) or at Solvay Pharmaceuticals B.V. (C. J. van Houtenlaan 36, 1381 CP Weesp, The Netherlands), using well documented standard procedures. The affinities for dopamine-D2 and 5-HT1A receptors for instance, were measured as described by Creese (1997) and Gozlan (1983) respectively.

For the next data set, the target named is Serotonin-5-HT6 (Homo sapiens, UniProt P50406). In words: In vitro receptor affinity, Serotonin-5-HT6. The following applies: radioligand [3H]-LSD, read-out: K1 (in vitro receptor affinity). The class given is binding. As to the method:
as §1

The next data set addresses Dopamine-D1 (Homo sapiens, UniProt P21728). The data set can be described thus: In vitro receptor affinity, Dopamine-D1. The format is binding. The following applies: radioligand [3H]-SCH 23390, read-out: K1 (in vitro receptor affinity). As to the method: as §1
The nature of data set [1]: Toxicological studies, plasma of rats. The class given is in vivo. The following applies: rats dosed with SLV313. The text has this: (§2) Psychotropic pyridylmethyl -piperazine and -piperidine derivatives are disclosed in EP 0 908 458. […] By now it is very well known that N-oxides are metabolites of many tertiary amines, and in most cases are also intermediates between tertiary amines and their N-dealkylated analogs. Most, but not all, tertiary amine drugs give rise to N-oxides. For instance, this is the case with morphine, imipramine, promazine, cinnarizine and nicotine, to name just a few. How much N-oxidation takes place varies from trace amounts to a near quantitative conversion. […] The most famous example of these is chlordiazepoxide (Librium®), one of the most frequently used drugs in psychiatric and general medicine. […] Some N-oxides undergo nearly quantitative reductive conversion to the corresponding tertiary amines and in other cases the conversion is a mere trace reaction or even completely absent (Bickel, 1969). Thus, the formation of N-oxides and their corresponding tertiary amines is unpredictable. […] When they are, the reaction can be a mere trace or nearly quantitative.

In a further data set the target is Muscarine-M4 (Homo sapiens, UniProt P08173). The data set can be described thus: In vitro receptor affinity, Muscarine-M4. The settings on record: radioligand [3H]-4-DAMP, read-out: K1 (in vitro receptor affinity). The format is binding. As to the method: as §1
Muscarine-M4, sequence (P08173 whole entry): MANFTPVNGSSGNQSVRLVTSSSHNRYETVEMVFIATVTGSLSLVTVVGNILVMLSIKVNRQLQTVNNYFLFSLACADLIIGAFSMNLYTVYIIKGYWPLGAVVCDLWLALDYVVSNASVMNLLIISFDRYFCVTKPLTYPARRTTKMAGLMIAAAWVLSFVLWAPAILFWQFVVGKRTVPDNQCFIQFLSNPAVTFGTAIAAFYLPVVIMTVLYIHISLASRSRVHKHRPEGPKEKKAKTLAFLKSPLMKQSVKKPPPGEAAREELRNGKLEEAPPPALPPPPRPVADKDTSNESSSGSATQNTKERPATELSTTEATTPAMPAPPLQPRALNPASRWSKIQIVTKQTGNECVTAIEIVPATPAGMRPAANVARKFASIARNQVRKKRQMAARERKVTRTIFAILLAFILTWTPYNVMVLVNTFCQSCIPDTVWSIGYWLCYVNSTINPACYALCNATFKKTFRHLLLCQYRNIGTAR
Data set [2] is described as follows: Toxicological studies, plasma of dogs. The class given is in vivo. The following applies: dogs dosed with SLV313.
Description: as §2

The target of a further data set is 5-HT reuptake (Homo sapiens, UniProt P31645). The data set can be described thus: In vitro receptor affinity, 5-HT reuptake. The class given is binding. The following applies: radioligand [3H]-paroxetine, read-out: K1 (in vitro receptor affinity). The method, then: as §1
5-HT reuptake, sequence (P31645 whole entry): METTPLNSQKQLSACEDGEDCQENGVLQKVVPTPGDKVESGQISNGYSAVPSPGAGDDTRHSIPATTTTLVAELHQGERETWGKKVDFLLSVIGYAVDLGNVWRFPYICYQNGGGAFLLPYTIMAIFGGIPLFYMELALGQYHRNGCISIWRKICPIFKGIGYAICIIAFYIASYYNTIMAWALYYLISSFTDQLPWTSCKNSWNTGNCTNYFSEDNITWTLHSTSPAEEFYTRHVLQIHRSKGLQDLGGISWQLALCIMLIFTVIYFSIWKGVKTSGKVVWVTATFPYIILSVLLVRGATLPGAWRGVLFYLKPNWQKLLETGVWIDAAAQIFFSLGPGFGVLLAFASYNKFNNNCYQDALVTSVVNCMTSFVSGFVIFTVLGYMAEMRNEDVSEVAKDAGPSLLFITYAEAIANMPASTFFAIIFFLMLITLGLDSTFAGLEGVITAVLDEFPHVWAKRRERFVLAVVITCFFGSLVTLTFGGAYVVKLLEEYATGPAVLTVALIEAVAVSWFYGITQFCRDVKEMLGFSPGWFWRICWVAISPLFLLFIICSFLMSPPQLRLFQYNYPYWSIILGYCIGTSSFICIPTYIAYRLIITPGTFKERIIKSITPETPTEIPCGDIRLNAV
Data set [3] can be described thus: Metabolism studies in humans. The class given is in vivo. The settings on record: in man (also not in any animal species used in toxicology studies).
Description: as §2

The target in a further data set is T1, human 5-HT1A receptors (Homo sapiens, UniProt P08908).
T1 construct: expressed in transfected cells; host or cells: CHO
T1 sequence (P08908 whole entry): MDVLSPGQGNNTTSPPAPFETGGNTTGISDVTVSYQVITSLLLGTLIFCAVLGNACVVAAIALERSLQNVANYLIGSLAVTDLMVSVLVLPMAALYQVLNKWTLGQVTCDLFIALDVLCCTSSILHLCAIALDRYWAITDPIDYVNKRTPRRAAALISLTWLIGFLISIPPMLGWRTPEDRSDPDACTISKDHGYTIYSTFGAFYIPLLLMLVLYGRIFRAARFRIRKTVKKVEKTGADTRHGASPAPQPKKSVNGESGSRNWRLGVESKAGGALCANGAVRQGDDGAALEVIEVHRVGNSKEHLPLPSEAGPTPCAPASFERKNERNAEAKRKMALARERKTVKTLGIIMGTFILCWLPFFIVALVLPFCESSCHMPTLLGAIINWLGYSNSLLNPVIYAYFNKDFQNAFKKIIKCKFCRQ
In words: In vitro functional agonism at 5-HT1A receptors, adenylate cyclase in CHO cell-lines. The following applies: CHO cell-lines expressing cloned receptor; read-out: Agonism human 5-HT1A receptors, pEC50 (converted). The format is cell-based. As to the method:
(§3) In vitro (ant)agonistic activity at human D2 receptors and 5-HT1A receptors was measured according to the methods described by Solomon (1974) and Weiss (1985) respectively, on the formation of adenylate cyclase in CHO cell-lines expressing these cloned receptors.

Data set [4] is described as follows: Plasma concentrations in mice after i.v. or p.o. administration, blood analyzed by LC-MS. The class given is in vivo. The following applies: i.v. or p.o. As to the method: The LC-MS system consists of 2 Perkin elmer series 200 micro pumps. The pumps were connected to each other by a 50 pI tee mixer, and connected to a Gilson 215 auto sampler. The method was as follows:
The auto sampler was connected to a Waters Atlantis C18 30*4.6 mm column with 3 μm particles. The column was thermo stated in a Perkin Elmer series 200 column oven at 40° C. The column was connected to a Perkin Elmer series 200 UV meter with a 2.7 μl flowcel. The wavelength was set to 254 nm. The UV meter was connected to a Sciex API 150EX mass spectrometer. The mass spectrometer had the following parameters: Scanrange:150-900 a.m.u., polarity: positive; scan mode: profile; resolution Q1: UNIT; step size: 0.10 a.m.u.; time per scan: 0.500 sec; NEB: 10; CUR: 10; IS: 5200; TEM: 325; DF: 30; FP: 225 and EP: 10. The light scattering detector was connected to the Sciex API 150. The light scattering detector was a Sedere Sedex 55 operating at 50° C. and 3 bar N2. The complete system was controlled by a G3 powermac.
For oral (p.o.) administration: to the desired quantity (0.5-5 mg) of the solid test compound in a glass tube, some glass beads were added and the solid was milled by vortexing for 2 minutes. After addition of 1 ml of a solution of 1% methylcellulose in water and 2% (v/v) of Poloxamer 188 (Lutrol F68), the compound was suspended by vortexing for 10 minutes. The pH was adjusted to 7. […]

The test system of data set [5] is neurotransmitter receptors. The data set can be described thus: Pharmacological profile in vitro (overall statement). As to the method:
as §1, §3

The target of a further data set is Dopamine-D3 (Homo sapiens, UniProt P35462). In words: In vitro receptor affinity, Dopamine-D3. The class given is binding. The following applies: radioligand [3H]-spiperone, read-out: K1 (in vitro receptor affinity). As to the method: as §1
Dopamine-D3, sequence (P35462 whole entry): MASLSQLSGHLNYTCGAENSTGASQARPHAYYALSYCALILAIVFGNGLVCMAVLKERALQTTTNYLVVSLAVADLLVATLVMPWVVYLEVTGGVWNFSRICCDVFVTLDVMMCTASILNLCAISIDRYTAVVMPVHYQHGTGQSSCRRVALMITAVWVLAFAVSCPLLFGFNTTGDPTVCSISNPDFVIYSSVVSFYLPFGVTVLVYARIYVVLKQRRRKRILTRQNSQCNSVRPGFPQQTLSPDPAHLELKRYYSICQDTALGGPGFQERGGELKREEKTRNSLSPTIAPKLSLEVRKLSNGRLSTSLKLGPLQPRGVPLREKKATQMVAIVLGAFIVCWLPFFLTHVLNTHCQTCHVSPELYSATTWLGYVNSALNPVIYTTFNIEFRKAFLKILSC
A short description of data set [6]: Pharmacological profile in vivo (overall statement). The settings on record: in vivo. As to the method:
Lower lip retraction, an in vivo animal model for serotonin 5-HT1A receptor agonistic activity, was measured according to the method described by Berendsen (1989); Apomorphine-induced climbing behaviour in mice, an in vivo animal model for dopamine-D2 receptor antagonistic activity, was determined according to the method described by Costall (1978).

A further data set deals with Dopamine-D2 (Homo sapiens, UniProt P14416). The data set can be described thus: In vitro receptor affinity, Dopamine-D2. The following applies: radioligand [3H]-spiperone, read-out: K1 (in vitro receptor affinity). The class given is binding. The method, then: as §1
Dopamine-D2, sequence (P14416 whole entry): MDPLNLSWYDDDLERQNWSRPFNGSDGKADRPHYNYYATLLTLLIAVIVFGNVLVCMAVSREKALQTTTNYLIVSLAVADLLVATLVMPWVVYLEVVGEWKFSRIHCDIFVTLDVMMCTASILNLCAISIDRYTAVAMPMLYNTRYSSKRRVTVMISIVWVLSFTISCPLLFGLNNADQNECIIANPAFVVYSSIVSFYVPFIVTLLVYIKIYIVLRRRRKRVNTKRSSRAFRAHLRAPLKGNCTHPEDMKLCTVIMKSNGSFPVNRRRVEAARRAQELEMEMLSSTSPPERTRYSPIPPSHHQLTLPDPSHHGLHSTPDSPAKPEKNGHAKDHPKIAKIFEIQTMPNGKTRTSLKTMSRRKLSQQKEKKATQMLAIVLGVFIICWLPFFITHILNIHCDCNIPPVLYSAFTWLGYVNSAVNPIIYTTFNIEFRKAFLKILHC

Serotonin-5-HT6, sequence (P50406 whole entry): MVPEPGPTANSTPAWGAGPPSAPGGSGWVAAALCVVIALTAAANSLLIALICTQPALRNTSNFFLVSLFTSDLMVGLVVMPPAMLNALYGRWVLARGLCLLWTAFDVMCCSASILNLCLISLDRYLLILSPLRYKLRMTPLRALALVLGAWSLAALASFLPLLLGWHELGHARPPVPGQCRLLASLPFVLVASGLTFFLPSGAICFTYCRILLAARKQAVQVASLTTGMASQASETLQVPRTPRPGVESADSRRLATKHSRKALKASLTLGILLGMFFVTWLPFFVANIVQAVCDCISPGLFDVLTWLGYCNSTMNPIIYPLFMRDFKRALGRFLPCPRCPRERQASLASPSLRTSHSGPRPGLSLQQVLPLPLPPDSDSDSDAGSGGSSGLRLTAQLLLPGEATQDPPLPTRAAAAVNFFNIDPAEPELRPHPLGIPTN
Dopamine-D1, sequence (P21728 whole entry): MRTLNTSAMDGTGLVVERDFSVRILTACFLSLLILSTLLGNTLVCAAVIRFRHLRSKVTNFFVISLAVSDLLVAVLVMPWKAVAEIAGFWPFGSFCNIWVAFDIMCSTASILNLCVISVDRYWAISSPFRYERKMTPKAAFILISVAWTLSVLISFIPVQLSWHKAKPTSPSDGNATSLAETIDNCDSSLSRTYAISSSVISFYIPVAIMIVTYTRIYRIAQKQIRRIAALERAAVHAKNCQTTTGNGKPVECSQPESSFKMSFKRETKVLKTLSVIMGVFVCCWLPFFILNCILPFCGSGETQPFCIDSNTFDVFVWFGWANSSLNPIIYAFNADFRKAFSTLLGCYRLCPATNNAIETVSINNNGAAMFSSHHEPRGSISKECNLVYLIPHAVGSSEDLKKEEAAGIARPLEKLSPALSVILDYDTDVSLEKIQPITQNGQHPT
Muscarine-M1, sequence (P11229 whole entry): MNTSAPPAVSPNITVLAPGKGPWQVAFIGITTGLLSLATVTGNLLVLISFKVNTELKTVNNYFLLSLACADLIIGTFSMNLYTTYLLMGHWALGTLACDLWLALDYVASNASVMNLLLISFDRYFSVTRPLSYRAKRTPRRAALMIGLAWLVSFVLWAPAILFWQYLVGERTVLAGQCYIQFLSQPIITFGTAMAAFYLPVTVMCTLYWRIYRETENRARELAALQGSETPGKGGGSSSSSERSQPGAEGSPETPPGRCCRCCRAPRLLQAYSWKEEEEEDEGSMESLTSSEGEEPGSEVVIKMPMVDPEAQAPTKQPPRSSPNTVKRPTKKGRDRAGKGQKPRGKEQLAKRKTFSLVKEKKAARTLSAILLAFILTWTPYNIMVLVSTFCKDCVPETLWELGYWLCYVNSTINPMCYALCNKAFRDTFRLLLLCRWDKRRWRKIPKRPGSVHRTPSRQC

For `Fc1ccc(-c2cncc(CN3CCN(c4cccc5c4OCCO5)CC3)c2)cc1` [SLV313, 3-[[4-(2,3-dihydro-1,4-benzodioxin-5-yl)-1-piperazinyl]methyl]-5-(4-fluorophenyl)pyridine, reference compound], the Ki on Muscarine-M1 is above 10000 nM; on Serotonin-5-HT6, above 1000 nM; at Dopamine-D1 it was above 10000 nM; at Muscarine-M4 it was above 1000 nM; at 5-HT reuptake it was above 1000 nM. Further, the pyridine-N-oxide in plasma result in data set [1] and in data set [2] was “could not be demonstrated” each time. Moreover, in data set [3], the “piperazine-N-oxide as a metabolite” value is given as “has not been detected as a metabolite”. Besides, the EC50 at human 5-HT1A receptors is 1.26 nM. Further, in [4], the “metabolism to piperazine-N-oxide” value is on record as “not metabolized to its piperazine-N-oxide”.
For `[O-][n+]1cc(CN2CCN(c3cccc4c3OCCO4)CC2)cc(-c2ccc(F)cc2)c1` [pyridine N-oxide, 1-(2,3-dihydro-1,4-benzodioxin-5-yl)-4-[[5-(4-fluorophenyl)-1-oxido-3-pyridinyl]methyl]-piperazine], the melting point turned out to be 171 °C. On Muscarine-M1, the Ki was above 10000 nM. Moreover, on Serotonin-5-HT6, the Ki is above 10000 nM. Further, the “pharmacological profile/activity in vitro relative to parent SLV313” value in data set [5] was “identical”. Also, the Ki on Dopamine-D1 was above 10000 nM. At Dopamine-D3, the Ki came out at 8 nM. Besides, the Ki on Muscarine-M4 was above 10000 nM. The “pharmacological profile/potency in vivo relative to SLV313” value in [6] is on record as “identical”. For the same compound, the Ki on 5-HT reuptake came out at 320 nM. The Ki at Dopamine-D2 came to 5 nM. In addition, the EC50 on human 5-HT1A receptors was 1.58 nM.
